pIC50: −log10 of the molar value.
Columns and labels:
[1] = tested on: Pseudomonas aeruginosa efflux− (MB9799), IMP-1; type: cell-based; conditions: C, D serine β-lactamase inhibitor closely related to relebactam; for Concentration of metallo-β-lactamase inhibitor which restores susceptibility of efflux − (MB9799) strain to imipenem: imipenem at 2 μg/mL, in the presence of a class A; for P. aeruginosa expressing IMP-1, efflux − (MB9799) MITC95: concentration restoring susceptibility to imipenem at 2 μg/mL in the presence of a class A
Description: (§1) The strain background was Pseudomonas aeruginosa PAO1.
(§2) The strain set was then used as a pair to determine the effect of metallo-β-lactamase inhibitors of Formula I on the MIC of imipenem and/or ceftazidime. A fixed concentration of antibiotic was included in standard microbroth MIC tests, usually at the CLSI (Clinical and Laboratory Standards Institute) breakpoint concentration. A fixed amount of a class A/C beta-lactamase inhibitor was also included to inhibit the resident Pseudomonas AmpC enzyme. A serial titration of the metallo-β-lactamase inhibitor was included and the concentration of metallo-β-lactamase inhibitor which restores susceptibility of the strain to the included antibiotic was recorded. That concentration of metallo-β-lactamase inhibitor was then compared between the two strains to determine the fold difference between the efflux+ (MB9798) and efflux− (MB9799) strains. This was taken as an indication of the extent to which the MBLi is subject to efflux.

[2] = tested on: Pseudomonas aeruginosa efflux+ (MB9798), IMP-1; type: cell-based; set-up: Concentration of metallo-β-lactamase inhibitor which restores susceptibility of efflux + (MB9798) strain to imipenem: unit not given here; conditions: C, D serine β-lactamase inhibitor closely related to relebactam; for Concentration of metallo-β-lactamase inhibitor which restores susceptibility of efflux + (MB9798) strain to imipenem: imipenem at 2 μg/mL, in the presence of a class A; for P. aeruginosa expressing IMP-1, efflux + (MB9798) MITC95: concentration restoring susceptibility to imipenem at 2 μg/mL in the presence of a class A
Description: as §1, §2

[3] = tested on: Serratia marcescens expressing IMP-1 (CL5741); type: cell-based; conditions: for Serratia marcescens MITC95: IMP-1 strain CL5741, with imipenem 1 μg/ml, 95% inhibition of growth; for Serratia marcescens expressing IMP-1 (CL5741) MITC95: with imipenem 1 μg/ml, 95% inhibition of bacterial growth
Description: (§3) Antibiotic Potentiation Activity: Determination of Synergistic Concentration
(§4) The bacterial strains tested included the clinical strains Escherichia coli expressing NDM-1 (CLB30005, CLB30016), Serratia marcescens expressing IMP-1 (CL5741), and Klebsiella pneumoniae expressing VIM-1 (IHMA599644). Inhibitor activity was measured in the presence and absence of imipenem in a 384-well microplate.
(§5) The clinical strains CLB30016, CL5741 and IHMA599644 were grown on trypticase soy agar containing 5% sheep's blood. The bacteria on agar plates were incubated at 35° C. with humidity overnight. The following day, individual colonies from each clinical strain were picked and resuspended in 5 ml saline to attain an OD600 of […], for CLB30016, CL5741 and IHMA599644, respectively. These were further diluted 1:100 into 1.1×CAMHB and used to inoculate the test wells as described below.
(§6) Imipenem in 10 mM 3-(N-morpholino)propanesulfonic acid (MOPS, pH 7) was stored in single use aliquots at −80° C. […] On the day of the assay, 4 μl of antibiotic was added to 45 ul of bacteria followed by 1 μl of test compound and mixed by pipetting and with an orbital shaker. The concentration of antibiotic used in the assay was 1 μg/ml. Microplates were covered and incubated at 35° C. for 22 hours to 24 hours. At the end of the incubation, absorbance was determined using a spectrophotometer.

[4] = tested on: Klebsiella pneumoniae expressing VIM-1 (IHMA599644); type: cell-based; conditions: for Klebsiella pneumoniae MITC95: VIM-1 strain IHMA599644, with imipenem 1 μg/ml, 95% inhibition of growth; for Klebsiella pneumoniae expressing VIM-1 (IHMA599644) MITC95: with imipenem 1 μg/ml, 95% inhibition of bacterial growth
Description: as §3, §4, §5, §6

[5] = tested on: Escherichia coli expressing NDM-1 (CLB30005, CLB30016); type: cell-based; conditions: with imipenem 1 μg/ml; for Escherichia coli MITC95: NDM-1 strain, 95% inhibition of growth; for Escherichia coli expressing NDM-1 (CLB30016) MITC95: 95% inhibition of bacterial growth
Description: as §3, §4, §5, §6

[6] = molecular target: NDM-1 (Klebsiella pneumoniae, UniProt C7C422); test: biochemical; type: biochemical; conditions: fluorescence assay, CCF2-FA substrate, 1 pM enzyme, 2 hours at 25° C.; read-out: NDM-1 IC50
NDM-1, sequence (C7C422 whole entry, looked up, species assumed): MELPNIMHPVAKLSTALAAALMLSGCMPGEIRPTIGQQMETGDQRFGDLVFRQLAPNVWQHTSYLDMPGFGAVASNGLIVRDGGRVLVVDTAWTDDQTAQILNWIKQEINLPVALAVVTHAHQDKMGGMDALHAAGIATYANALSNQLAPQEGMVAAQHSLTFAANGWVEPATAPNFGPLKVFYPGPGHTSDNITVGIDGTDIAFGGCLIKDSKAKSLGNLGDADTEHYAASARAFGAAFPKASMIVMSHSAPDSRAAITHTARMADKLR
Description: (§7) Enzyme Activity: Determination of IC50
(§8) The Class B enzyme activities were measured in the presence of the test inhibitor in a fluorescence assay against a commercially available substrate consisting of a cephalosporin core linking 7-hydroxycoumarin to fluorescein (CCF2-FA). […] In a 384-well microplate, the test inhibitor was incubated with the metallo-β-lactamase enzyme and the substrate for 2 hours at 25° C. […] The IC50 value was determined from semi-logarithmic plots of enzyme inhibition versus inhibitor concentration, with a curve generated using a 4-parameter fit.

[7] = molecular target: IMP-1 (Serratia marcescens, UniProt P52699); test: biochemical; type: biochemical; conditions: fluorescence assay, CCF2-FA substrate, 2 pM enzyme, 2 hours at 25° C.; read-out: IMP-1 IC50
IMP-1, sequence (P52699 whole entry, looked up, species assumed): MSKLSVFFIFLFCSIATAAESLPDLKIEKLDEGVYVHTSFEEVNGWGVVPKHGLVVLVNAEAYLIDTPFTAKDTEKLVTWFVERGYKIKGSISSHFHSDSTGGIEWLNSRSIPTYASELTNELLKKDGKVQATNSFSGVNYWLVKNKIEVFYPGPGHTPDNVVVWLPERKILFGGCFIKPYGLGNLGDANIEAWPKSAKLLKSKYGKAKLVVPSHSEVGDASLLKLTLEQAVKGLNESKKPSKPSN
Description: as §7, §8

| SMILES | Concentration of metallo-β-lactamase inhibitor which restores susceptibility of efflux − (MB9799) strain to imipenem [1] | Concentration of metallo-β-lactamase inhibitor which restores susceptibility of efflux + (MB9798) strain to imipenem [2] | Serratia marcescens MITC95 [3] | Klebsiella pneumoniae MITC95 [4] | Escherichia coli MITC95 [5] | pIC50 [6] | pIC50 [7] | P. aeruginosa expressing IMP-1, efflux − (MB9799) MITC95 [1] | P. aeruginosa expressing IMP-1, efflux + (MB9798) MITC95 [2] | Serratia marcescens expressing IMP-1 (CL5741) MITC95 [3] | Klebsiella pneumoniae expressing VIM-1 (IHMA599644) MITC95 [4] | Escherichia coli expressing NDM-1 (CLB30016) MITC95 [5] |
| --- | --- | --- | --- | --- | --- | --- | --- | --- | --- | --- | --- | --- |
| C[C@H](CN)NS(=O)(=O)c1ccc(-c2cc(F)cc3[nH]c(N)nc23)c(-c2nn[nH]n2)c1S(N)(=O)=O [Example 396] | 1.563 | 0.7813 | 0.3906 µM | 3.125 µM | 0.7813 µM | 10.57 | 9.66 |  |  |  |  |  |
| C[C@@H](N)CNS(=O)(=O)c1ccc(-c2ccnc(N)c2)c(-c2nn[nH]n2)c1S(N)(=O)=O [Example 422] | 0.7813 | 1.563 | 0.7813 µM | 1.563 µM | 0.3906 µM | 9.41 | 9.01 |  |  |  |  |  |
| Cn1nnc2c(-c3ccc(S(=O)(=O)N[C@H]4CCNC4)c(S(N)(=O)=O)c3-c3nn[nH]n3)cccc21 [Example 293, (S)-4-(1-methyl-1H-benzo[d][1,2,3]triazol-4-yl)-N1-(pyrrolidin-3-yl)-3-(2H-tetrazol-5-yl)benzene-1,2-disulfonamide] |  |  | 3.125 µM | 3.125 µM | 3.125 µM | 9.54 | 8.89 | 1.563 µM | 3.125 µM |  |  |  |
| CS(=O)(=O)C1CCN(S(=O)(=O)c2ccc(-c3cccc4sc(N)nc34)c(-c3nnn[nH]3)c2S(N)(=O)=O)C1 (stereo not shown) [Example 45, 3-(2-amino-1,3-benzothiazol-4-yl)-6-{[3-(methylsulfonyl)pyrrolidin-1-yl]sulfonyl}-2-(1H-tetrazol-5-yl)benzenesulfonamide] |  |  |  |  |  |  | 8.78 | 3.125 µM | 25 µM | 6.25 µM | 25 µM | 50 µM |
| Nc1nc2c(-c3ccc(S(=O)(=O)NCC4(N)CCOC4)c(S(N)(=O)=O)c3-c3nnn[nH]3)cccc2s1.O=CO (stereo not shown) [Example 114, 3-((4-(2-aminobenzo[d]thiazol-4-yl)-2-sulfamoyl-3-(1H-tetrazol-5-yl)phenylsulfonamido)methyl)tetrahydrofuran-3-aminium formate] |  |  |  |  |  | 10.19 |  | 3.125 µM | 3.125 µM | 3.125 µM | 6.25 µM | 3.125 µM |
| Nc1ncc(-c2ccc(S(=O)(=O)N[C@@H]3CCNC3)c(S(N)(=O)=O)c2-c2nn[nH]n2)s1 [Example 284] |  |  | 0.7813 µM | 1.563 µM | 1.563 µM |  | 9.39 | 0.7813 µM | 0.7813 µM |  |  |  |
| N=C(N)c1nc2c(-c3ccc(S(N)(=O)=O)c(S(N)(=O)=O)c3-c3nn[nH]n3)cccc2s1 [Example 192, 4-(3,4-disulfamoyl-2-(2H-tetrazol-5-yl)phenyl)benzo[d]thiazole-2-carboximidamide] |  |  |  |  |  | 9.56 | 9.16 | 0.7813 µM | 1.563 µM | 0.7813 µM | 1.563 µM | 1.563 µM |
| Nc1nc2c(-c3ccc(S(=O)(=O)NC[C@]4(F)CCCNC4)c(S(N)(=O)=O)c3-c3nnn[nH]3)cccc2s1.O=CO [Example 122, (S)-3-(((4-(2-aminobenzo[d]thiazol-4-yl)-2-sulfamoyl-3-(1H-tetrazol-5-yl)phenyl)sulfonamido)methyl)-3-fluoropiperidin-1-ium formate] |  |  |  |  |  | 10.48 | 9.55 | 1.563 µM | 3.125 µM | 1.563 µM | 3.125 µM | 1.563 µM |
| Nc1nc2c(-c3ccc(S(=O)(=O)N[C@H]4C[C@H](N)C4)c(S(N)(=O)=O)c3-c3nnn[nH]3)cccc2s1 [Example 71, 4-(2-amino-1,3-benzothiazol-4-yl)-N^1-(trans-3-aminocyclobutyl)-3-(1H-tetrazol-5-yl)benzene-1,2-disulfonamide] |  |  |  |  |  | 10.21 |  | 1.563 µM | 1.563 µM | 3.125 µM | 3.125 µM | 1.563 µM |
| Nc1ccc(-c2ccc(S(=O)(=O)NCCc3c[nH]cn3)c(S(N)(=O)=O)c2-c2nn[nH]n2)cn1 [Example 217, N^1-(2-(1H-imidazol-4-yl)ethyl)-4-(6-aminopyridin-3-yl)-3-(2H-tetrazol-5-yl)benzene-1,2-disulfonamide] |  |  |  |  |  | 9.35 |  | 1.563 µM | 12.5 µM | 1.563 µM | 3.125 µM | 0.3906 µM |
| C[N+]1(C)CC(NS(=O)(=O)c2ccc(-c3cccc4[nH]c(N)nc34)c(-c3nn[nH]n3)c2S(N)(=O)=O)C1.O=C([O-])O [Example 245, 3-(4-(2-Amino-1H-benzo[d]imidazol-4-yl)-2-sulfamoyl-3-(2H-tetrazol-5-yl)phenylsulfonamido)-1,1-dimethylazetidin-1-ium hydrogencarbonate] |  |  | 1.563 µM | 3.125 µM | 0.7813 µM |  |  | 1.563 µM | 1.563 µM |  |  |  |
